Test results reported in publication PMC3290904 (Biochemistry, 2012).

Key:
AdiC (S26C mutant) [1] = target: AdiC (S26C mutant) (Salmonella enterica, UniProt P60066, C129S/C238S/C281S/C286S/C369S/C398S/C80S/C97S/S26C); experiment: competitive inhibition of […]-arginine uptake in oriented proteoliposomes; format: biochemical
AdiC (S26C mutant) [2] = target: T1, AdiC (S26C mutant) (Salmonella enterica, UniProt P60066, S26C/C80S/C97S/C129S/C238S/C281S/C286S/C369S/C398S); experiment: isothermal titration calorimetry; format: binding
T1 sequence (P60066 1-445 S26C/C80S/C97S/C129S/C238S/C281S/C286S/C369S/C398S): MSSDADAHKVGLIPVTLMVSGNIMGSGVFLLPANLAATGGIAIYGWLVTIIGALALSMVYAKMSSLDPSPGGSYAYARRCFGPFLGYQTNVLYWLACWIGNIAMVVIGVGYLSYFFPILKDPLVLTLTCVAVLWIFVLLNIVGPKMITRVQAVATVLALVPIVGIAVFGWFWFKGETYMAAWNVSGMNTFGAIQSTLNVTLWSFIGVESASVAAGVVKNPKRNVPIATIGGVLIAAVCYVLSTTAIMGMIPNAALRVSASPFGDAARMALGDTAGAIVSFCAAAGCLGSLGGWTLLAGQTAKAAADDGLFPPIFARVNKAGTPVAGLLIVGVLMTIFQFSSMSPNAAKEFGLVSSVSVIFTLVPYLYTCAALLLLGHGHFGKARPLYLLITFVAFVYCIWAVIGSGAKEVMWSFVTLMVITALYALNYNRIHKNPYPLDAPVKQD

[3] = target: AdiC (arginine-agmatine antiporter) (Salmonella enterica, UniProt P60066); experiment: isothermal titration calorimetry; format: binding

| Compound | Ki (AdiC (S26C mutant) [1]) [µM] | Kd (AdiC (S26C mutant) [2]) [µM] | Kd [3] [µM] |
| --- | --- | --- | --- |
| N=C(N)NCCC[C@H](N)C(N)=O [argininamide] | 1100 | – | – |
| N=C(N)NCCC[C@H](N)C(=O)O [arginine] | – | 22 ± 2 | 32 |
